Values quoted from earlier work in PMC4691889 (Genes & Development, 2015).

System: NTMT1
Conditions: inhibition of NTMT1, determined in previous studies; ref Richardson et al. 2015

SMILES: Nc1ncnc2c1ncn2[C@@H]1O[C@H](CSCC[C@H](N)C(=O)O)[C@@H](O)[C@H]1O [SAH, S-adenosyl-L-homocysteine]
- IC50: 3.3 µM
